Test results from the supplement of paper PMC6045584.
± gives the standard deviation of the averaged measurements.

Experiments:
CABOZANTINIB = compound: COc1cc2nccc(Oc3ccc(NC(=O)C4(C(=O)Nc5ccc(F)cc5)CC4)cc3)c2cc1OC [CABOZANTINIB]; assay: surviving fraction relative to DMSO-only wells; higher = less growth inhibition; details: exposure time: 5 days
Procedure, shortened: (§1)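 Tumour cell lines in log phase were plated in 384-well plates at 250–500 cells per well, then, after 24 hours, exposed continuously for five days to inhibitors at 0.5, 1, 5, 10, 50, 100, 500 and 1000 nM. Viability came from CellTiter-Glo luminescence, and surviving fraction is that signal normalised to the median of DMSO-only wells. Plates were read after 10 minutes at room temperature, and each line, screened three times, was kept only when replicate Pearson r was >0.7 and median Z' was >0.3.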

[1] = compound: CCc1cc(Nc2nccc(-c3c(-c4ccc(OC)c(C(=O)Nc5c(F)cccc5F)c4)nc4ccccn34)n2)c(OC)cc1N1CCC(N2CCN(S(C)(=O)=O)CC2)CC1; assay: as above; details: exposure time: 5 days
Procedure, shortened: as §1

Test System	surviving fraction (CABOZANTINIB; 0.5 nM)	surviving fraction (CABOZANTINIB; 1 nM)	surviving fraction (CABOZANTINIB; 5 nM)	surviving fraction (CABOZANTINIB; 10 nM)	surviving fraction (CABOZANTINIB; 50 nM)	surviving fraction (CABOZANTINIB; 100 nM)	surviving fraction (CABOZANTINIB; 500 nM)	surviving fraction (CABOZANTINIB; 1000 nM)	surviving fraction ([1]; 0.5 nM)	surviving fraction ([1]; 1 nM)	surviving fraction ([1]; 5 nM)	surviving fraction ([1]; 10 nM)	surviving fraction ([1]; 50 nM)	surviving fraction ([1]; 100 nM)	surviving fraction ([1]; 500 nM)	surviving fraction ([1]; 1000 nM)
CCK81 LARGE INTESTINE	0.691 ± 0.07	0.837 ± 0.062	0.725 ± 0.12	0.764 ± 0.019	0.704 ± 0.073	0.686 ± 0.075	0.718 ± 0.12	0.743 ± 0.08	–	–	–	–	–	–	–	–
G292 BONE	0.911 ± 0.047	0.977 ± 0.012	1.02 ± 0.078	1.02 ± 0.046	0.925 ± 0.04	0.876 ± 0.021	0.76 ± 0.035	0.722 ± 0.024	1.03 ± 0.072	0.969 ± 0.032	1 ± 0.061	1 ± 0.023	1.03 ± 0.041	0.994 ± 0.013	1.018 ± 0.0097	0.975 ± 0.035
HCC38 BREAST	1.07 ± 0.1	1.14 ± 0.12	1.38 ± 0.22	1.34 ± 0.23	1.13 ± 0.074	1.24 ± 0.067	1.22 ± 0.1	1.34 ± 0.15	1.09 ± 0.18	1.19 ± 0.28	1.1 ± 0.23	1.02 ± 0.23	0.855 ± 0.2	1.07 ± 0.17	0.923 ± 0.12	0.881 ± 0.13
HCC70 BREAST	0.985 ± 0.1	1.03 ± 0.048	1.07 ± 0.11	1.09 ± 0.065	1.04 ± 0.14	1.12 ± 0.045	1.09 ± 0.091	0.99 ± 0.051	1.08 ± 0.059	0.975 ± 0.12	1.07 ± 0.039	1.09 ± 0.1	1.08 ± 0.051	1.12 ± 0.096	1.03 ± 0.13	0.994 ± 0.052
HMLE3 BREAST	0.925 ± 0.14	0.91 ± 0.032	0.98 ± 0.023	0.942 ± 0.08	0.992 ± 0.07	0.91 ± 0.064	0.72 ± 0.049	0.656 ± 0.0044	0.947 ± 0.037	0.931 ± 0.073	1 ± 0.013	1.09 ± 0.038	0.967 ± 0.066	0.979 ± 0.081	0.908 ± 0.049	0.834 ± 0.062
HMT3552 BREAST	1.12 ± 0.044	1.04 ± 0.012	1.02 ± 0.021	1.03 ± 0.051	1.21 ± 0.067	1.09 ± 0.085	1.01 ± 0.061	0.988 ± 0.057	1.14	1.08	1.08	1.1	1.17	1.18	1.21	1.3
HS578T BREAST	0.931 ± 0.14	0.97 ± 0.1	0.786 ± 0.087	1.12 ± 0.087	1.04 ± 0.08	1.2 ± 0.049	1.06 ± 0.075	0.998 ± 0.099	0.891 ± 0.1	0.952 ± 0.025	0.965 ± 0.12	0.902 ± 0.042	0.803 ± 0.064	0.88 ± 0.14	0.931 ± 0.022	0.776 ± 0.078
